Reference: patent publication USRE46943E1, “Radioprotector compounds and methods” (PETER MACCALLUM CANCER INSTITUTE, priority 2010, dated 2018)
pIC50: −log10 of the molar value. Where two headings read alike, the source gives them in different places.

Experiments:
[1] = tested on: transformed human keratinocyte cell line (FEP 1811); assay: Clonogenic survival cell culture assay for radioprotective activity (12 Gy 137Cs gamma irradiation); format: cell-based; conditions: 12 Gy; for DMF10 (dose modification factor at a concentration of 10 microM of radioprotector): 10 microM radioprotector; for DMFm (dose modification factor at maximum protection): DMF=Dp/Dc at survival level Sm; for PF (protection factor = Sm/So): survival at maximum protection vs irradiation only
Excerpt: PF is defined as a ratio of survival at maximum protection Sm and survival after irradiation only So: PF=Sm/So. DMF is defined as a ratio of doses that result in survival level of Sm in the presence Dp and the absence Dc of radioprotector: DMF=Dp/Dc. DMF10 is define in a similar way except that instead of Sm a survival at 10 microM of radioprotector is used.
PF (Protection Factor) is defined as a ratio of survival at maximum protection Sm and survival after irradiation only So:PF=Sm/So. DMF (Dose Modification Factor) is defined as a ratio of doses that result in survival level of Sm in the presence (Dp) and the absence (Dc) of radioprotector: DMF=Dp/Dc. DMF10 is defined in a similar way except that instead of Sm a survival at 10 microM of radioprotector is used.
(§1) • i. […] In appropriate cases, tautomers are drawn to illustrate potential hydrogen-bond donating configurations into the minor groove of DNA. • ii. 2-Amino-4-(5′-(4″-methylpiperazin-1″-yl)benzimidazol-2′-yl)aniline was prepared by hydrogenation of 4-(5′-(4″-methylpiperazin-1″-yl)benzimidazol-2′-yl)-2-nitroaniline, using a modification of the method of Kelly et al, Aust. […] 2-Amino-4-(5′-(piperidin-1″-yl)benzimidazol-2′-yl)aniline was prepared by hydrogenation of 2-nitro-4-(5′-(piperidin-1″-yl)benzimidazol-2′-yl)aniline, using a modification of the method of Kelly et al, Aust. […] Ethyl 4-amino-3-nitrobenzenecarboximidate hydrochloride was prepared by reaction of 4-amino-3-nitrobenzonitrile with dry HCl gas in ethanol, using the method of Kelly et al, Aust. […] 5-(4′-Methylpiperazin-1′-yl)-2-nitroaniline was prepared using a modification of the method of Kelly et al, Aust. […] The following chemicals were obtained from the chemical suppliers indicated: 2-furaldehyde (Aldrich), 2-pyridinecarboxaldehyde (Aldrich), 3-fluoropyridine-2-carbaldehyde (Maybridge), 3-trifluoromethylpyridine-2-carboxaldehyde (Apollo Scientific), 6-methyl-2-pyridinecarboxaldehyde (Matrix Scientific), 5-methylpyridine-2-carbonitrile (Apollo Scientific), 4-methyl-2-pyridinecarbonitrile (Aldrich), 4-chloro-2-pyridinecarbonitrile (Aldrich), 4-methoxypicolinonitrile (Combi-Blocks), pyrazinecarbonitrile (Aldrich), 2-quinolinecarbonitrile (Aldrich), 3-isoquinolinecarbonitrile (Aldrich), 1-isoquinolinecarboxylic acid (Aldrich), indazole-3-carboxylic acid (Aldrich), 2-hydroxynicotinic acid (Aldrich), 4-hydroxypiperidine (Aldrich), 1-methylhomopiperazine (Aldrich), 3-hydroxypiperidine (Aldrich), 4-(N-BOC-amino)piperidine (Aldrich), 4-methoxypiperidine (Acros), 4-methyl-3-nitrobenzonitrile (Aldrich), 5-chloro-2-nitroaniline (Aldrich), 2-cyanopyridine (Aldrich), methyl 4-amino-2-methoxybenzoic acid (Aldrich), 4-(trifluoromethyl)-2-pyridinecarbonitrile (Matrix Scientific), cis-2,6-dimethylmorphoiline (Acros), 5-(trifluoromethyl)-2-pyridinecarbonitrile (Advanced Chemical Intermediates) and 5-fluoro-2-pyridinecarbonitrile (Advanced Chemical Intermediates). • ix. […] Melting points were determined using an Electrothermal melting point apparatus, and are uncorrected. […] The abbreviations s for singlet, d for doublet, t for triplet, q for quartet, br for broad and m for muitiplet were used in the assignments of multiplicity. A value approximating the centre of a multiplet is quoted. […] The addition of a few drops of acetic acid to methanol-d4 solutions was used to enhance solubility for the acquisition of ^13C nmr spectra. Mass spectra were recorded on a Micromass Quattro II mass spectrometer and accurate mass analyses were carried out by the School of Chemistry at the University of Melbourne on a Finnigan LTQ-FT model high resolution mass spectrometer. Thin layer chromatography (TLC) was carried out using Merck silica gel 60 F254 aluminium sheets or Merck neutral aluminium oxide 150 F254 sheets. Flash column chromatography was carried out using Ajax silica gel 230-400 mesh. • xi.

[2] = tested on: transformed human keratinocyte cell line (FEP 1811); assay: Clonogenic survival cell culture assay for cytotoxicity; format: cell-based; conditions: un-irradiated keratinocytes, one hour drug exposure, colonies counted after eight days, read-out: C50 (concentration of radioprotector that results in 50% clonogenic survival)
Experimental: as §1, with “xi. […] The details are described in detail in Martin et al (4) (the disclosure of which is included herein in its entirety by way of reference), but briefly, mid-log phase monolayer cultures are incubated with various concentrations of the test drugs for one hour, after which the monolayers are washed and dispersed into single cell suspensions using pronase, and finally appropriate numbers of cells are dispensed into Petri dishes. Colonies are counted after eight days incubation. […] The irradiation (with a dose rate of 0.6 Gy per minute) is started 30 minutes after addition of the test drug. After completion of irradiation, incubation of cultures is continued until the total time of exposure to the drug reaches 60 minutes. Cultures are then washed and plated for clonogenic survival as described for the cytotoxicity experiments.” for “xi.”

[3] = Homo sapiens, Keratinocyte, light or radiation study

| Structure (SMILES) | melting point | DMF10 (dose modification factor at a concentration of 10 microM of radioprotector) [1] | DMFm (dose modification factor at maximum protection) [1] | PF (protection factor = Sm/So) [1] | pIC50 [2, 3] | pIC50 [2] |
| --- | --- | --- | --- | --- | --- | --- |
| CN1CCN(c2ccc3nc(-c4ccc5cc(-c6ccccn6)[nH]c5c4)[nH]c3c2)CC1 [Example 31, 2-(6′-(5″-(4′″-Methylpiperazin-1′″-yl)benzimidazol-2″-yl)indol-2′-yl)pyridine] | 245 to 247 °C | 2.09 | 2.20 | 22.8 | 4.70 |  |
| COc1cc2nc(-c3ccccn3)[nH]c2cc1-c1nc2ccc(N3CCN(C)CC3)cc2[nH]1 [Example 32, 2-(5′-methoxy-6′-(5″-(4′″-methylpiperazin-1′″-yl)benzimidazol-2″-yl)benzimidazol-2′-yl)pyridine] | 190 to 195 °C | 1.32 | 1.56 | 23.6 | 3.95 |  |
| COc1ccnc(-c2nc3ccc(-c4nc5ccc(N6CCN(C)CC6)cc5[nH]4)cc3[nH]2)c1 [Example 11, 4-Methoxy-2-(5′-(5″-(4′″-methylpiperazin-1′″-yl)benzimidazol-2″-yl)benzimidazol-2′-yl)pyridine] | 190 °C (dec.) | 1.95 | 2.28 | 51.4 | 4.27 |  |
| COCCOCCNc1ccc2nc(-c3ccc4nc(-c5ccccn5)[nH]c4c3)[nH]c2c1 [Example 39, 2-(5′-(5″-(2′″-(2″″-methoxyethoxy)ethylamino)benzimidazol-2″-yl)benzimidazol-2′-yl)pyridine] | 183 to 186 °C | 1.50 | 2.70 | 171.5 | 3.76 |  |
| CN1CCN(c2ccc3nc(-c4ccc5nc(-c6cc(Cl)ccn6)[nH]c5c4)[nH]c3c2)CC1 [Example 8, 4-Chloro-2-(5′-(5″-(4′″-methylpiperazin-1′″-yl)benzimidazol-2″-yl)benzimidazol-2′-yl)pyridine] | 195 °C (dec.) | 2.12 | 2.20 | 39.6 | 4.10 |  |
| CN1CCCN(c2ccc3nc(-c4ccc5nc(-c6ccccn6)[nH]c5c4)[nH]c3c2)CC1 [Example 25, 2-(5′-(5″-(4′″-Methyl-1′″,4′″-diazepan-1′″-yl)benzimidazol-2″-yl)benzimidazol-2′-yl)pyridine] | 185 °C (dec.) | 1.77 | 2.14 | 16.7 | 3.91 |  |
| CNc1ccnc(-c2nc3ccc(-c4nc5ccc(N6CCN(C)CC6)cc5[nH]4)cc3[nH]2)c1 [Example 9, 4-Methylamino-2-(5′-(5″-(4′″-methylpiperazin-1′″-yl)benzimidazol-2″-yl)benzimidazol-2′-yl)pyridine] | 220 °C (dec.) | 1.14 | 1.55 | 7.1 | 4.22 |  |
| Cc1ccnc(-c2nc3ccc(-c4nc5ccc(N6CCN(C)CC6)cc5[nH]4)cc3[nH]2)c1 [Example 7, 4-Methyl-2-(5′-(5″-(4′″-methylpiperazin-1′″-yl)benzimidazol-2″-yl)benzimidazol-2′-yl)pyridine] | 200 °C (dec.) | 2.36 | 2.55 | 183.8 | 3.88 |  |
| COCCNc1ccc2[nH]c(-c3ccc4nc(-c5ccccn5)[nH]c4c3)nc2c1 [Example 35, 2-(5′-(5″-(2′″-methoxyethylamino)benzimidazol-2″-yl)benzimidazol-2′-yl)pyridine] |  | 1.66 | 2.19 | 21.9 | 3.90 |  |
| CN1CCN(c2ccc3[nH]c(-c4ccc5[nH]c(-c6nn(C)c7ccccc67)nc5c4)nc3c2)CC1 [Example 17, 1-methyl-3-(5′-(5″-(4′″-methylpiperazin-1′″-yl)benzimidazol-2″-yl)benzimidazol-2′-yl)indazole] |  | 1.27 | 1.68 | 10.9 |  | 4.12 |
| CN(CCO)c1ccc2[nH]c(-c3ccc4[nH]c(-c5ccccn5)nc4c3)nc2c1 [Example 54, 2-(5′-(5″-(3′″-hydroxyethyl-1′″-methylamino)benzimidazol-2″-yl)benzimidazol-2′-yl)pyridine] |  | 1.15 | 1.87 | 20.2 | 4.03 |  |
